PubChem BioAssay AID1963983 (Molecular Pharmacology Branch, DTP, NCI, 2024)

Test system: 186277-243-T-J2-PDC multi-cell spheroid viability
Test: Anticancer human tumor 186277-243-T-J2-PDC patient-derived colon adenocarcinoma cell line growth inhibition [PI3K]
Conditions: for IC50: curve of first compound; for viability, T/C: stronger effect = lower value; active = viability on the fitted dose curve at most 10% of control; inactive = the rest
Outline: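 Multi-cell spheroids combine tumor cells with HUVEC and human MSCs, treated with targeted agents alone or with inavolisib, alpelisib, duvelisib or copanlisib. Concentrations fall in half-log steps from at or near clinical Cmax, or from 10 microM where Cmax is unknown; viability read-out.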

[1] = second compound 0.0316 µM, first compound 0.0316 µM
[2] = second compound 0.0316 µM, first compound 0.1 µM
[3] = second compound 0.0316 µM, first compound 0.316 µM
[4] = second compound 0.0316 µM, first compound 1 µM
[5] = second compound 0.0316 µM, first compound 3.16 µM
[6] = second compound 0.0316 µM, first compound 10 µM
[7] = second compound 0.1 µM, first compound 0.0316 µM
[8] = second compound 0.1 µM, first compound 0.1 µM
[9] = second compound 0.1 µM, first compound 0.316 µM
[10] = second compound 0.1 µM, first compound 1 µM
[11] = second compound 0.1 µM, first compound 3.16 µM
[12] = second compound 0.1 µM, first compound 10 µM
[13] = second compound 0.316 µM, first compound 0.0316 µM
[14] = second compound 0.316 µM, first compound 0.1 µM
[15] = second compound 0.316 µM, first compound 0.316 µM
[16] = second compound 0.316 µM, first compound 1 µM
[17] = second compound 0.316 µM, first compound 3.16 µM
[18] = second compound 0.316 µM, first compound 10 µM
[19] = second compound 1 µM, first compound 0.0316 µM
[20] = second compound 1 µM, first compound 0.1 µM
[21] = second compound 1 µM, first compound 0.316 µM
[22] = second compound 1 µM, first compound 1 µM
[23] = second compound 1 µM, first compound 3.16 µM
[24] = second compound 1 µM, first compound 10 µM
[25] = second compound 3.16 µM, first compound 0.0316 µM
[26] = second compound 3.16 µM, first compound 0.1 µM
[27] = second compound 3.16 µM, first compound 0.316 µM
[28] = second compound 3.16 µM, first compound 1 µM
[29] = second compound 3.16 µM, first compound 3.16 µM
[30] = second compound 3.16 µM, first compound 10 µM
[31] = second compound 10 µM, first compound 0.0316 µM
[32] = second compound 10 µM, first compound 0.1 µM
[33] = second compound 10 µM, first compound 0.316 µM
[34] = second compound 10 µM, first compound 1 µM
[35] = second compound 10 µM, first compound 3.16 µM
[36] = second compound 10 µM, first compound 10 µM
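Note: spheroids exposed to compounds for seven days before viability reading.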
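Throughout, for viability, T/C: 100% = DMSO vehicle control viability.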

C=CC(=O)N1CCN(c2nc(=O)n(-c3c(C)ccnc3C(C)C)c3nc(-c4c(O)cccc4F)c(F)cc23)C(C)C1 (centres undefined) + CC(Nc1ncnc2nc[nH]c12)c1cc2cccc(Cl)c2c(=O)n1-c1ccccc1
> 10000 nM: IC50 (second compound 0.0316 µM) | IC50 (second compound 0.1 µM) | IC50 (second compound 0.316 µM) | IC50 (second compound 1 µM) | IC50 (second compound 3.16 µM) | IC50 (second compound 10 µM)
inactive: viability, T/C [1] 100% | viability, T/C [2] 95.4% | viability, T/C [3] 91.8% | viability, T/C [4] 90.9% | viability, T/C [5] 99.7% | viability, T/C [6] 90.4% | viability, T/C [7] 99% | viability, T/C [8] 90.1% | viability, T/C [9] 96.2% | viability, T/C [10] 93.7% | viability, T/C [11] 100% | viability, T/C [12] 107% | viability, T/C [13] 95.6% | viability, T/C [14] 87.4% | viability, T/C [15] 90% | viability, T/C [16] 92.2% | viability, T/C [17] 119% | viability, T/C [18] 88.8% | viability, T/C [19] 96.1% | viability, T/C [20] 110% | viability, T/C [21] 116% | viability, T/C [22] 101% | viability, T/C [23] 112% | viability, T/C [24] 95% | viability, T/C [25] 101% | viability, T/C [26] 91.1% | viability, T/C [27] 106% | viability, T/C [28] 101% | viability, T/C [29] 107% | viability, T/C [30] 92.3% | viability, T/C [31] 93.9% | viability, T/C [32] 89% | viability, T/C [33] 93.6% | viability, T/C [34] 76.3% | viability, T/C [35] 87.5% | viability, T/C [36] 72.7%

Cn1ncc(Cl)c1-c1cc(C(=O)NC(CN)Cc2cccc(F)c2)sc1Cl (centres undefined) + CC(Nc1ncnc2nc[nH]c12)c1cc2cccc(Cl)c2c(=O)n1-c1ccccc1
inactive: viability, T/C [1] 82.5% | viability, T/C [2] 83.6% | viability, T/C [3] 55.5% | viability, T/C [4] 56.8% | viability, T/C [5] 46.1% | viability, T/C [6] 15.4% | viability, T/C [7] 84.1% | viability, T/C [8] 90.4% | viability, T/C [9] 54.2% | viability, T/C [10] 56.1% | viability, T/C [11] 44.3% | viability, T/C [12] 17.5% | viability, T/C [13] 99.9% | viability, T/C [14] 86.9% | viability, T/C [15] 60.9% | viability, T/C [16] 48.8% | viability, T/C [17] 44.6% | viability, T/C [18] 16.1% | viability, T/C [19] 97.4% | viability, T/C [20] 78.3% | viability, T/C [21] 48% | viability, T/C [22] 43.1% | viability, T/C [23] 37.1% | viability, T/C [24] 13.1% | viability, T/C [25] 83.8% | viability, T/C [26] 70.6% | viability, T/C [27] 45% | viability, T/C [28] 31.8% | viability, T/C [29] 25.6% | viability, T/C [31] 85.1% | viability, T/C [32] 60.3% | viability, T/C [33] 39.3% | viability, T/C [34] 25% | viability, T/C [35] 18.7%
182 nM: IC50 (second compound 10 µM)
1330 nM: IC50 (second compound 0.1 µM)
1080 nM: IC50 (second compound 0.316 µM)
active: viability, T/C [30] 5.44% | viability, T/C [36] 3.49%
304 nM: IC50 (second compound 3.16 µM)
1500 nM: IC50 (second compound 0.0316 µM)
516 nM: IC50 (second compound 1 µM)
